# Activity calls are given as the source filed them.
# Key:
# [1] = microbe, parasite or virus in culture; type: functional; details: Mycobacterium tuberculosis
# Protein skinhead-1 = molecular target: T1, Protein skinhead-1 (Caenorhabditis elegans, UniProt P34707); type: functional
# T1 sequence (P34707 whole entry): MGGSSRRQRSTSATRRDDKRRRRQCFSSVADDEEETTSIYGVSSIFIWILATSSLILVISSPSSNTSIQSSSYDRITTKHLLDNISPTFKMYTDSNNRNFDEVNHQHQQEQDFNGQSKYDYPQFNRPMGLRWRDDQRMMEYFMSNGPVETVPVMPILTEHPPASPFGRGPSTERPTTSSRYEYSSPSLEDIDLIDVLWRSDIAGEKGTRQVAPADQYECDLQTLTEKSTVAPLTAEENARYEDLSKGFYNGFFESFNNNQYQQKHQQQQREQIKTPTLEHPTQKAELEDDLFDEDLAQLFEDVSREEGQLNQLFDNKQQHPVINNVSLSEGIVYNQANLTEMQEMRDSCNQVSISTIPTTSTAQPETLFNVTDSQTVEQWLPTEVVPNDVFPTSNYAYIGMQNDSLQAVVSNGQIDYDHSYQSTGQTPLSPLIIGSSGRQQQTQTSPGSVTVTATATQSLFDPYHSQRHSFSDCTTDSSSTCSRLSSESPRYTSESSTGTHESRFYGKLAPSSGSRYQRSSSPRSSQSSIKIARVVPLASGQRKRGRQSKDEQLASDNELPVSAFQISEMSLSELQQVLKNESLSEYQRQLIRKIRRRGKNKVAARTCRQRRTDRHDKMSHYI
# [2] = molecular target: FAD-linked sulfhydryl oxidase ALR (Homo sapiens, UniProt P55789); assay: ALR-catalysed DTT oxidation blockers – biochemical, H2O2 detection, luminescence, cherry-pick, dose response (AID 493248)
# [3] = viability of uninfected HEp-2 cells – cell-based, HTS, cytotoxicity control for RSV inhibitor project, dose response (AID 2410); type: functional; details: human respiratory syncytial virus
# [4] = Luminescence Cell-Based Dose Retest to Confirm Inhibitors of Cancer Stem Cells. [Related pubchem assays (depositor defined):AID2717, AID2721]; type: functional; details: Homo sapiens
# [5] = fluconazole-exposed Candida albicans growth modulators – fluorescence, retest, confirmation (AID 2467); type: functional, cell-based
# [6] = NIH3T3 cell viability loss – ATP luminescence, mouse fibroblasts, counter-screen, dose response (AID 2010); type: functional, cell-based;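 further: cells exposed to compound for about 90 hours before reading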
# [7] = luciferase reporter signal suppression in cells – H4 neuroglioma cells, luminescence, dose response (AID 1990); type: functional, cell-based
# Streptococcus = assay: GAS UMAA2166 growth inhibition – luminescence, BacTiterGlo, counter-screen for streptokinase expression inhibitor project, dose response (AID 1915); type: functional, organism-based;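 further: potency for reduction of bacterial viability or growth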
# [8] = NIH-3T3 fibroblast cytotoxicity, dose response, cytotoxicity control, cell-based, fluorescence, Alamar Blue, secondary assay (AID 2327); type: functional;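 further: NIH-3T3 mouse fibroblasts cultured with fluconazole at 8 µg/mL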
# [9] = system: Streptococcus sp. 'group A'; assay: Streptococcus pyogenes SK(-)GAS viability under kanamycin – luminescence, BacTiterGlo, confirmation, counter-screen for streptokinase expression inhibitor project, dose response (AID 1900); type: functional, organism-based
# [10] = Trypanosoma cruzi growth suppression in host cells – NIH3T3 host cells, beta-gal luminescence, confirmation (AID 2044); type: functional, cell-based;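 further: intracellular parasites grown in NIH/3T3 mouse fibroblasts as host cells; luminescent beta-galactosidase reporter signal from transgenic T. cruzi replicating inside host cells; inhibitors lower the luminescence signal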
# [11] = alpha-synuclein stem-loop luciferase translation blockers – H4 neuroglioma cells, luminescence, confirmation (AID 1988); type: functional, cell-based
# INS1 = assay: INS-1E survival protection against cytokine death – cell-based, luminescence, retest, dose response (AID 449756); type: functional; details: Rattus norvegicus;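 further: cell death triggered by IL-1 beta plus TNF-alpha plus IFN-gamma mixture; protective hits raise ATP signal compared with cytokine alone wells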
# [12] = Luminescence Cell-Based Dose Response HTS to Identify Inhibitors of 5'UTR Stem-Loop Driven Prion Protein mRNA Translation in H4 Neuroglioblastoma Cells. [Related pubchem assays: 1827 (Project Summary), 1813 (Primary HTS)]; type: functional
# Sequence of FAD-linked sulfhydryl oxidase ALR (P55789 whole entry): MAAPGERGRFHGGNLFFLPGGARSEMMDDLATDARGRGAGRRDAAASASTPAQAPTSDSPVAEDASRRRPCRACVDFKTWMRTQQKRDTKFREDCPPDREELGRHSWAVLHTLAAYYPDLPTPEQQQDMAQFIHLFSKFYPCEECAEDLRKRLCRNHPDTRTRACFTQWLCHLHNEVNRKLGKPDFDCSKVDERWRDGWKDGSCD
smiles,measurement,setting,value
CC1=NN(C(N)=S)C(=O)C1N=Nc1ccc(C)c(Br)c1 (stereo not drawn),CC50,[1],> 40 µM (active)
Fc1ccc(-c2nnc(-c3ccc(F)cc3)o2)cc1,IC50,Protein skinhead-1,> 100 µM (inactive)
CCn1cc(-c2ccccc2)c(C(=O)O)c1-c1ccc(OC)cc1,AC50,[2],5.6 µM (active)
COc1ccc(-c2cn(-c3ccc(C)cc3)c(=O)n2CC(=O)Nc2ccc(OC)cc2OC)cc1,IC50,Protein skinhead-1,> 100 µM (inactive)
O=C(/C=C/c1ccc2c(c1)OCCCO2)c1ccc2ccccc2c1O,CC50,[3],30.7 µM (active)
same,AC50,[4],5.21 µM (active)
Brc1cccc(OCCSc2ncccn2)c1,IC50,Protein skinhead-1,63.6 µM (inactive)
O=C1N=C(N/N=C/c2cccnc2)SC1Cc1ccc(SC(F)F)cc1 (stereo not drawn),EC50,[5],1.87 µM (active)
same,EC50,[6],3.44 µM (active)
same,EC50,[7],11.9 µM (active)
same,EC50,Streptococcus,8.36 µM (active)
same,EC50,[8],> 150 µM (inactive)
same,EC50,[9],3.31 µM (active)
same,EC50,[10],0.969 µM (active)
same,EC50,[11],12.3 µM (active)
same,AC50,INS1,2.56 µM (active)
same,EC50,[12],12.2 µM (active)
C=CCNC(=O)c1onc(CCl)c1C(=O)OC,CC50,[1],> 40 µM (active)
COC(=O)c1ccc(=O)n(Cc2ccco2)c1,IC50,Protein skinhead-1,> 100 µM (inactive)
O=C1c2ccccc2C(=O)N1CCCCN(C(=O)c1ccc(Cl)s1)c1ccc(Cl)cc1,CC50,[3],24 µM (active)
Sc1nnc(C2CCCCC2)n1/N=C/C(Cl)=C\c1ccccc1,CC50,[3],15.2 µM (active)
same,AC50,[4],5.5 µM (active)
CCOC1OC(O)=C(Cl)/C1=N\c1cc(C)ccc1C (stereo not drawn),CC50,[3],29.2 µM (active)
Cc1nc(NC(=O)c2c(-c3ccccc3)noc2C)sc1C(=O)N(C)C,EC50,[5],> 38 µM (not active)
same,EC50,[8],> 160 µM (inactive)
Nc1cc(N)nc(SCc2cccc(F)c2)n1,EC50,[5],> 38 µM (not active)
same,EC50,[8],> 150 µM (inactive)
CCN(CC)C(=O)[C@H]1CC(CC(=O)NCC23C[C@H]4C[C@@H](C2)C[C@@H](C3)C4)C(=O)N2CCc3c([nH]c4ccccc34)[C@]12C (stereo partly drawn),CC50,[1],30.8 µM (active)
CC1Cc2ccccc2N1C(=O)C1CCN(S(=O)(=O)Cc2ccccc2)CC1 (stereo not drawn),IC50,Protein skinhead-1,> 100 µM (inactive)
Cc1nc(C(F)(F)F)c(C(=O)O)cc1-c1nc(-c2ccccc2)cs1,AC50,[2],11.4 µM (active)
Clc1ccc(-c2nc(-c3cnccn3)no2)cc1,IC50,Protein skinhead-1,74.1 µM (inactive)
Cc1nn2c(-c3cccnc3)ccnc2c1-c1ccccc1,CC50,[3],41.2 µM (active)
CCCCCCCNC(=O)c1ccc(N2CCC3(CC2)OCCO3)c([N+](=O)[O-])c1,CC50,[1],> 40 µM (active)

# — ChEMBL document CHEMBL1201862, “PubChem BioAssay data set” (2004)
